Among the data in US20260216336A1, “NEW PSORALEN COMPOUND” (NAGASAKI UNIVERSITY, priority 2022, published 2026) are DNA crosslinking efficiency values, retold here.

Read-outs that look alike come from different tables or passages of the source.

Assay [1] has as its system DNA. The settings on record: background statement on commercially available reagent; cited from earlier work.
Assay [2] has as its system DNA. The assay is described as follows: DNA crosslinking efficiency of psoralen reagents (general statements, no method given). The settings on record: studies conducted by the inventors. It counts as biochemical.

`Cc1oc2c(C)c3oc(=O)cc(C)c3cc2c1COCCCCCCOP(OCCC#N)N(C(C)C)C(C)C` (centres unmarked) [Psoralen C6 Phosphoramidite, 6-[4′-(Hydroxymethyl)-4,5′,8-trimethylpsoralen]-hexyl-1-O-(2-cyanoethyl)-(N,N-diisopropyl)-phosphoramidite]: the DNA crosslinking efficiency entry in assay [1] was “favorable DNA crosslinking efficiency”.

As to `O=C(CCCOc1c2occc2cc2ccc(=O)oc12)ON1C(=O)CCC1=O` [SPB, succinimidyl-[4-(psoralen-8-yloxy)]butyrate], the DNA crosslinking efficiency entry in assay [2] was “very low”.
